Test results published in patent US20090018134A1, “Compounds - 945” (AstraZeneca AB, priority 2007, published 2009).

What follows are molecules tested against T1, mTOR (Homo sapiens, UniProt P42345) (assay: In Vitro mTOR Kinase Assay (Echo), Test (a)(ii)). Conditions: read-out: mTOR Kinase Assay (Echo).
T1 construct: FLAG; made in house
Format: biochemical
Outline: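 Enzyme: HEK293-expressed, FLAG-purified mTOR C-terminal fragment (aa 1362-2549). Rxn 2 h RT with biotinylated peptide, stopped with EDTA 50 mM/BSA/Tris pH 7.4. Detection: T389 phospho-antibody AlphaScreen, 680 nm excitation. IC50.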

T1 sequence (P42345 1362-2549): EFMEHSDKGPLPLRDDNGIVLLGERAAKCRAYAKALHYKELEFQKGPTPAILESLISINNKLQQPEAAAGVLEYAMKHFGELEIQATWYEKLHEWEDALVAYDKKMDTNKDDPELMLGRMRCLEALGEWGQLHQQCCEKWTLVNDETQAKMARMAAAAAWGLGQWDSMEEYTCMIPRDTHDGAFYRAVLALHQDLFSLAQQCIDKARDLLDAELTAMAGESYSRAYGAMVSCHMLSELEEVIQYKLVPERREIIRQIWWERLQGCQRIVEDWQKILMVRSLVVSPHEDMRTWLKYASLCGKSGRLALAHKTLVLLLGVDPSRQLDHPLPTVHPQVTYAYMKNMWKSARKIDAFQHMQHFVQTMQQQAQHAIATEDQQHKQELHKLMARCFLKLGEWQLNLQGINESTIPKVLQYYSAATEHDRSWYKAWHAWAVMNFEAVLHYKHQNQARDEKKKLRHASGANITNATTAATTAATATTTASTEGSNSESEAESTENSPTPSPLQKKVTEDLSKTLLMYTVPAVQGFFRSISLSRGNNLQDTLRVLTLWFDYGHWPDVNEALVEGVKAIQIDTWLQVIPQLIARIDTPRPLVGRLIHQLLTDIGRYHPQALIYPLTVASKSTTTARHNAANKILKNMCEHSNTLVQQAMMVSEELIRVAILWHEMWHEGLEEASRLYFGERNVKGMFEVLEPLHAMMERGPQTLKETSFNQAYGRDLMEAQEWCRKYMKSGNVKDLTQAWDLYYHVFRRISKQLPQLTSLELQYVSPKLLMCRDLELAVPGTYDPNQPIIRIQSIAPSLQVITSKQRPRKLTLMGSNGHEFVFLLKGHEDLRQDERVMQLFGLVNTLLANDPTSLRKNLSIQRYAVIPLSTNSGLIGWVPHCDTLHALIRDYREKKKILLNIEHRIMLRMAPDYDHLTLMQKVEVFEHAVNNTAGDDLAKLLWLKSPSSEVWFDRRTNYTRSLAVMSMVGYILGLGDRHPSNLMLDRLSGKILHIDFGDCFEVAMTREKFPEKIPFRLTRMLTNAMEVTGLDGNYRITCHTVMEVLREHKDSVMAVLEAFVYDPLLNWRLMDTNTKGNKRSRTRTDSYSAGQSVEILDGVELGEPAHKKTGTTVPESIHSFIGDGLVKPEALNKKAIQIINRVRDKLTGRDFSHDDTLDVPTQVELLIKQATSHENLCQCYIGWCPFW

IC50 [nM] | Compound
2.12 | CC(C)S(=O)(=O)C1(c2cc(N3CCOC[C@@H]3C)nc(-c3ccc(NC(=O)NCCO)cc3)n2)CC1 [Example 7e, 3-(2-hydroxyethyl)-1-[4-[4-[(3S)-3-methylmorpholin-4-yl]-6-(1-propan-2-ylsulfonylcyclopropyl)pyrimidin-2-yl]phenyl]urea]
2.79 | CNC(=O)Nc1ccc(-c2nc(N3CCOC[C@@H]3C)cc(C3(S(C)(=O)=O)CC3)n2)cc1 [Example 1a]

Same assay, conditions: table of enzyme assay Test (a)(ii); read-out: Test (a)(ii) IC50

IC50 [nM] | Compound
3.76 | C[C@H]1COCCN1c1cc(C2(S(=O)(=O)c3ccccc3)CC2)nc(-c2ccc(NC(=O)NCC(O)C(F)(F)F)cc2)n1 (stereo partly drawn) [Example 36be, 1-[4-[4-[1-(benzenesulfonyl)cyclopropyl]-6-[(3S)-3-methylmorpholin-4-yl]pyrimidin-2-yl]phenyl]-3-(3,3,3-trifluoro-2-hydroxypropyl)urea]
9.29 | CN(C)C(=O)C1(c2cc(N3CCOCC3)nc(-c3ccc(NC(=O)NC4CC4)cc3)n2)CC1 [Example 33, 1-[2-[4-(Cyclopropylcarbamoylamino)phenyl]-6-morpholin-4-ylpyrimidin-4-yl]-N,N-dimethylcyclopropane-1-carboxamide]
5.76 | Cc1csc(S(=O)(=O)C2(c3cc(N4CCOC[C@@H]4C)nc(-c4ccc(NC(=O)Nc5ccc(C(F)(F)F)cc5)cc4)n3)CC2)n1 [Example 25j, 1-[4-[4-[(3S)-3-methylmorpholin-4-yl]-6-[1-[(4-methyl-1,3-thiazol-2-yl)sulfonyl]cyclopropyl]pyrimidin-2-yl]phenyl]-3-[4-(trifluoromethyl)phenyl]urea]
7.33 | CS(=O)(=O)C1(c2cc(N3CCOCC3)nc(-c3ccc(NC(=O)NCCC#N)cc3)n2)CC1 [Example 36r, 3-(2-cyanoethyl)-1-[4-[4-(1-methylsulfonylcyclopropyl)-6-morpholin-4-ylpyrimidin-2-yl]phenyl]urea]
3.21 | CC[C@H]1COCCN1c1cc(C2(S(=O)(=O)c3ccccc3)CC2)nc(-c2ccc(NC(=O)NCCCO)cc2)n1 [Example 74h, 1-[4-[4-[1-(benzenesulfonyl)cyclopropyl]-6-[(3S)-3-ethylmorpholin-4-yl]pyrimidin-2-yl]phenyl]-3-(3-hydroxypropyl)urea]
4.15 | C[C@H]1COCCN1c1cc(C2(S(=O)(=O)c3cc(F)cc(F)c3)CC2)nc(-c2ccc(NC(=O)NC(C)(C)CO)cc2)n1 [Example 19k, 1-[4-[4-[1-(3,5-difluorophenyl)sulfonylcyclopro-pyl]-6-[(3S)-3-methylmorpholin-4-yl]pyrimidin-2-yl]phenyl]-3-(1-hydroxy-2-methylpropan-2-yl)urea]
1.79 | C[C@H]1COCCN1c1cc(C2(S(=O)(=O)c3cncc(F)c3)CC2)nc(-c2ccc(NC(=O)NC3CC3)cc2)n1 [Example 17c, 3-cyclopropyl-1-[4-[4-[1-(5-fluoropyridin-3-yl)sulfonylcyclopropyl]-6-[(3S)-3-methylmorpholin-4-yl]pyrimidin-2-yl]phenyl]urea]
6.78 | C[C@H]1COCCN1c1cc(C2(S(=O)(=O)c3ccccc3Cl)CC2)nc(-c2ccc(NC(=O)Nc3cnn(C)c3)cc2)n1 [Example 76f, 1-[4-[4-[1-(2-chlorophenyl)sulfonylcyclopropyl]-6-[(3S)-3-methylmorpholin-4-yl]pyrimidin-2-yl]phenyl]-3-(1-methylpyrazol-4-yl)urea]
1 | C[C@H]1COCCN1c1cc(C2(S(=O)(=O)c3nccs3)CC2)nc(-c2ccc(NC(=S)NCCO)cc2)n1 [Example 67, 3-(2-Hydroxyethyl)-1-[4-[4-[(3S)-3-methylmorpholin-4-yl]-6-[1-(1,3-thiazol-2-ylsulfonyl)cyclopropyl]pyrimidin-2-yl]phenyl]thiourea]
11.9 | C[C@H]1COCCN1c1cc(C2(S(=O)(=O)CCCO)CCC2)nc(-c2ccc(NC(=O)NCCF)cc2)n1 [Example 43n, 3-(2-fluoroethyl)-1-[4-[4-[1-(3-hydroxypropylsulfonyl)cyclobu-tyl]-6-[(3S)-3-methylmorpholin-4-yl]pyrimidin-2-yl]phenyl]urea]
42.8 | C[C@H]1COCCN1c1cc(C2(S(=O)(=O)C3CC3)CCCC2)nc(-c2ccc(NC(=O)NCCC#N)cc2)n1 [Example 36l, 3-(2-cyanoethyl)-1-[4-[4-(1-cyclopropylsulfonylcyclopentyl)-6-[(3S)-3-methylmorpholin-4-yl]pyrimidin-2-yl]phenyl]urea]
13.6 | Cc1ccc(F)cc1S(=O)(=O)C1(c2cc(N3CCOC[C@@H]3C)nc(-c3ccc(NC(=O)NCCO)cc3)n2)CC1 [Example 61b, 1-[4-[4-[1-(5-fluoro-2-methylphenyl)sulfonylcyclopropyl]-6-[(3S)-3-methylmorpholin-4-yl]pyrimidin-2-yl]phenyl]-3-(2-hydroxyethyl)urea]
13.1 | CNC(=O)Nc1ccc(-c2nc(N3CCOCC3)cc(C3(C(=O)N4CCN(C)CC4)CC3)n2)cc1 [Example 32d, 3-methyl-1-[4-[4-[1-(4-methylpiperazine-1-carbonyl)cyclopropyl]-6-morpholin-4-ylpyrimidin-2-yl]phenyl]urea]
17.7 | C[C@H]1COCCN1c1cc(C2(S(=O)(=O)CCCOC(F)F)CC2)nc(-c2ccc(NC(=O)NCCF)cc2)n1 [Example 96a, 1-[4-[4-[1-[3-(difluoromethoxy)propylsulfonyl]cyclopropyl]-6-[(3S)-3-methylmorpholin-4-yl]pyrimidin-2-yl]phenyl]-3-(2-fluoroethyl)urea]
5.58 | C[C@H]1COCCN1c1cc(C2(S(=O)(=O)c3cnn(C(F)F)c3)CC2)nc(-c2ccc(NC(=O)NCCO)cc2)n1 [Example 64al, 1-[4-[4-[1-[1-(difluoromethyl)pyrazol-4-yl]sulfonylcyclopropyl]-6-[(3S)-3-methylmorpholin-4-yl]pyrimidin-2-yl]phenyl]-3-(2-hydroxyethyl)urea]
12.4 | C[C@H]1COCCN1c1cc(C2(S(=O)(=O)C3CC3)CC2)nc(-c2ccc(NC(=S)NC3CC3)cc2)n1 [Example 37b, 3-cyclopropyl-1-[4-[4-(1-cyclopropylsulfonylcyclopropyl)-6-[(3S)-3-methylmorpholin-4-yl]pyrimidin-2-yl]phenyl]thiourea]
1.61 | C[C@H]1COCCN1c1cc(C2(S(=O)(=O)CCCO)CC2)nc(-c2ccc(NC(=O)Nc3ccon3)cc2)n1 [Example 64ak, 1-[4-[4-[1-(3-hydroxypropylsulfonyl)cyclopro-pyl]-6-[(3S)-3-methylmorpholin-4-yl]pyrimidin-2-yl]phenyl]-3-(1,2-oxazol-3-yl)urea]
10.4 | O=C(Nc1ccc(-c2nc(N3CCOCC3)cc(C3(S(=O)(=O)c4ccc(F)cc4)CC3)n2)cc1)Nc1ncns1 [Example 36an, 1-[4-[4-[1-(4-fluorophenyl)sulfonylcyclopropyl]-6-morpholin-4-ylpyrimidin-2-yl]phenyl]-3-(1,2,4-thiadiazol-5-yl)urea]
197 | C[C@H]1COCCN1c1cc(C2(S(C)(=O)=O)CCOCC2)nc(-c2ccc(NC(=O)NCCN(C)C)cc2)n1 [Example 23b, 3-(2-dimethylaminoethyl)-1-[4-[4-[(3S)-3-methylmorpholin-4-yl]-6-(4-methylsulfonyloxan-4-yl)pyrimidin-2-yl]phenyl]urea]
16.1 | C[C@H]1COCCN1c1cc(C2(S(=O)(=O)c3ccc(NCCO)c(F)c3)CC2)nc(-c2ccc(NC(=O)NCCO)cc2)n1 [Example 64n, 1-[4-[4-[1-[3-fluoro-4-(2-hydroxyethylamino)phenyl]sulfon-ylcyclopropyl]-6-[(3S)-3-methylmorpholin-4-yl]pyrimidin-2-yl]phenyl]-3-(2-hydroxyethyl)urea]
2.69 | C[C@H]1COCCN1c1cc(C2(S(=O)(=O)c3ccccc3)CCCC2)nc(-c2ccc(NC(=O)NCCO)cc2)n1 [Example 36bx, 1-[4-[4-[1-(benzenesulfonyl)cyclopentyl]-6-[(3S)-3-methylmorpholin-4-yl]pyrimidin-2-yl]phenyl]-3-(2-hydroxyethyl)urea]
24.3 | Cc1cc(F)ccc1S(=O)(=O)C1(c2cc(N3CCOC[C@@H]3C)nc(-c3ccc(NC(=O)NCC(F)F)cc3)n2)CC1 [Example 82d, 3-(2,2-difluoroethyl)-1-[4-[4-[1-(4-fluoro-2-methylphenyl)sulfonylcyclopropyl]-6-[(3S)-3-methylmorpholin-4-yl]pyrimidin-2-yl]phenyl]urea]
6.24 | Cc1cc(NC(=O)Nc2ccc(-c3nc(N4CCOC[C@@H]4C)cc(C4(S(=O)(=O)c5ccccc5)CC4)n3)cc2)no1 [Example 36dw, 3-[4-[4-[1-(benzenesulfonyl)cyclopropyl]-6-[(3S)-3-methylmorpholin-4-yl]pyrimidin-2-yl]phenyl]-1-(5-methyl-1,2-oxazol-3-yl)urea]
34.7 | C[C@H]1COCCN1c1cc(C2(S(=O)(=O)C3CC3)CCCC2)nc(-c2ccc(NC(=O)NCCCO)cc2)n1 [Example 36m, 1-[4-[4-(1-cyclopropylsulfonylcyclopentyl)-6-[(3S)-3-methylmorpholin-4-yl]pyrimidin-2-yl]phenyl]-3-(3-hydroxypropyl)urea]
9.25 | CC[C@H]1COCCN1c1cc(C2(S(=O)(=O)c3ccccc3)CC2)nc(-c2ccc(NC(=O)NCC3(O)CC3)cc2)n1 [Example 74i, 1-[4-[4-[1-(benzenesulfonyl)cyclopropyl]-6-[(3S)-3-ethylmorpholin-4-yl]pyrimidin-2-yl]phenyl]-3-[(1-hydroxycyclopropyl)methyl]urea]
4.79 | CNC(=O)Nc1ccc(-c2nc(N3CCOC[C@@H]3C)cc(C3(S(=O)(=O)CCCO)CCC3)n2)cc1 [Example 43a, 1-[4-[4-[1-(3-hydroxypropylsulfonyl)cyclobu-tyl]-6-[(3S)-3-methylmorpholin-4-yl]pyrimidin-2-yl]phenyl]-3-methylurea]
11.8 | C[C@H]1COCCN1c1cc(C2(S(=O)(=O)C3CCOCC3)CC2)nc(-c2ccc(NC(=O)NC3CC3)cc2)n1 [Example 94c, 3-cyclopropyl-1-[4-[4-[(3S)-3-methylmorpholin-4-yl]-6-[1-(oxan-4-ylsulfonyl)cyclopropyl]pyrimidin-2-yl]phenyl]urea]
